Measured values reported in publication PMC6667604, “Mechanism of action of antimicrobial peptide P5 truncations against Pseudomonas aeruginosa and Staphylococcus aureus” (AMB Express, 2019).
In brackets after ≈: the same amount, converted by molar mass. Like-named read-outs stand apart in the source and are kept apart here. Peptide text beside a SMILES is read from it.

Key:
[1] = test system: A. baumannii KCTC 2508; type: cell-based, Acinetobacter baumannii
Description: (§1) We detected the antimicrobial activity of peptides against Gram-negative bacteria (P. aeruginosa ATCC 27853 and A. baumannii KCTC 2508) and Gram-positive bacteria (S. aureus ATCC 25923 and B. subtilis KCTC 2217). The minimum inhibitory concentrations (MICs) of the parental and truncated peptides were determined using the microbroth dilution method, as previously described (Jorgensen [1993]). The bacteria were incubated overnight with shaking at 37 °C. The bacteria were diluted to 2 × 10^5 colony forming units (CFU)/mL in Mueller–Hinton broth (MHB) media. The peptides were serially diluted in 10 mM sodium phosphate buffer and then 50 µL of the bacteria and 50 µL of the peptide solutions were mixed and incubated for 18 h at 37 °C. The MICs were measured as the absorbance at 600 nm using a Versa Max microplate reader (Molecular Devices, Sunnyvale, CA, USA). The samples were analyzed in triplicate.

[2] = test system: B. subtilis KCTC 2217; type: cell-based, Bacillus subtilis
Description: as §1

[3] = test system: HaCaT cells; test: Cytotoxicity, MTT assay; type: cell-based, human; conditions: 24 h, 1.56 µM
Description: Human skin epithelial cells (HaCaT cells) were cultured in Dulbecco’s modified Eagle’s medium (DMEM) with 10% fetal bovine serum (FBS) at 37 °C in 5% CO2. Cytotoxicity was determined using the MTT assay (Deng et al. [2015]). HaCaT cells were plated at 2 × 10^4 cells/well in 96-well plates. After overnight incubation, the peptides were added at various concentrations for 24 h, and then 5 mg/mL of MTT was added to each well. After 1 h, the supernatant was removed and 100 μL of DMSO was added to each well to dissolve the formazan crystals. Cytotoxicity was measured at an absorbance of 570 nm using a microplate reader (VersaMax). The cell viability percentage (cell viability rate) was calculated using the following equation (Kim et al. [2018]): Cell viability percentage%=peptide treated sample[…]×100.

[4] = test system: P. aeruginosa ATCC 27853; type: cell-based, Pseudomonas aeruginosa; conditions: ATCC 27853, 18 h
Description: as §1

[5] = test system: S. aureus ATCC 25923; type: cell-based, Staphylococcus aureus; conditions: ATCC 25923, 18 h
Description: as §1

[6] = test system: S. aureus ATCC 25923; type: cell-based, Staphylococcus aureus; conditions: ATCC 25923, 18 h; remark: listed apart in the source
Description: as §1
(§2) The effects of various cations on the antimicrobial activity of P5 and the truncated peptides were determined against P. aeruginosa ATCC 27853 and S. aureus ATCC 25923. Bacteria were treated with the peptides in the presence of NaCl (50, 100, and 150 mM), MgCl2 (0.5, 1, and 2 mM), and FeCl3 (1, 4, and 8 µM). The MIC values were the same as those described above.

[7] = test system: P. aeruginosa ATCC 27853; type: cell-based, Pseudomonas aeruginosa; conditions: ATCC 27853, 18 h; remark: listed apart in the source
Description: as §1, §2

[8] = test system: red blood cells (RBCs) from mice; test: Hemolytic activity; type: cell-based; conditions: mouse RBCs 8% in PBS, peptide 100 µM, 1 h at 37 °C, absorbance 414 nm, 0.1% Triton X-100 positive control
Description: To determine the hemolytic activities of the peptides against red blood cells (RBCs) from mice, RBCs were centrifuged at 2000×g for 5 min and washed with 1 mL of phosphate-buffered saline solution (PBS) three times. The supernatant was removed and the RBCs were diluted to 8% in PBS. After serial dilution, 60 µL of the RBCs and peptides were added to a 96-well plate and incubated at 37 °C for 1 h. The plate was centrifuged at 1500×g for 10 min, 100 µL of the supernatant was transferred to a new plate, and the absorbance was measured at 414 nm (Versa-Max enzyme-linked immunosorbent assay (ELISA) reader). Additionally, 0.1% Triton X-100 and PBS were used as positive and negative controls, respectively. The hemolytic activity percentage (hemolysis rate) was calculated using the following equation (Han et al. [2016]): Hemolysis percentage%=peptide solution-negative control/positive control-PBS×100.

SMILES | MIC ([1]; A. baumannii KCTC 2508, MHB, 2 × 10^5 CFU/mL, 18 h at 37 °C, absorbance 600 nm, triplicate) | MIC ([2]; B. subtilis KCTC 2217, MHB, 2 × 10^5 CFU/mL, 18 h at 37 °C, absorbance 600 nm, triplicate) | cytotoxicity [3] | MIC [4] | MIC ([1]; KCTC 2508, 18 h) | MIC [5] | MIC ([2]; KCTC 2217, 18 h) | MIC [6] | MIC [7] | hemolysis [8]
CC[C@H](C)[C@H](NC(=O)CN)C(=O)NCC(=O)N[C@@H](C)C(=O)N[C@H](C(=O)N[C@@H](CC(C)C)C(=O)N[C@@H](CCCCN)C(=O)N[C@H](C(=O)N[C@@H](CC(C)C)C(=O)N[C@H](C(=O)N[C@H](C(=O)NCC(=O)N[C@@H](CC(C)C)C(=O)N1CCC[C@H]1C(=O)N[C@@H](C)C(=O)N[C@@H](CC(C)C)C(=O)N[C@H](C(=O)N[C@@H](CO)C(=O)N[C@@H](Cc1c[nH]c2ccccc12)C(=O)N[C@H](C(=O)N[C@@H](CCCCN)C(=O)N[C@@H](CCCNC(=N)N)C(=O)N[C@@H](CCCCN)C(=O)N[C@@H](CCCNC(=N)N)C(=O)N[C@@H](CCC(N)=O)C(=O)N[C@@H](CCC(N)=O)C(N)=O)[C@@H](C)CC)[C@@H](C)CC)[C@@H](C)O)[C@@H](C)O)C(C)C)C(C)C [Melittin, reference compound] | 1.56 µM (≈ 4.44 µg/mL) | 0.78 µM (≈ 2.22 µg/mL) | highly toxic | – | – | – | – | – | – | –
CC(C)C[C@H](NC(=O)[C@H](CC(C)C)NC(=O)[C@H](CCCCN)NC(=O)[C@H](CCCCN)NC(=O)[C@H](CC(C)C)NC(=O)[C@H](CC(C)C)NC(=O)[C@@H]1CCCN1C(=O)[C@H](CCCCN)NC(=O)[C@H](CCCCN)NC(=O)[C@H](CC(C)C)NC(=O)[C@H](CC(C)C)NC(=O)[C@H](CCCCN)NC(=O)[C@H](CCCCN)NC(=O)[C@H](Cc1c[nH]c2ccccc12)NC(=O)[C@@H](N)CCCCN)C(=O)N[C@@H](CCCCN)C(N)=O [P5-CT1] (H-KWKKLLKKPLLKKLLK-NH2) | – | – | – | 1.56 µM (≈ 3.13 µg/mL) | 3.13 µM (≈ 6.27 µg/mL) | 1.56 µM (≈ 3.13 µg/mL) | 1.56 µM (≈ 3.13 µg/mL) | 0.78 µM (≈ 1.56 µg/mL) | – | –
CC(C)C[C@H](NC(=O)[C@H](CCCCN)NC(=O)[C@H](CCCCN)NC(=O)[C@H](CC(C)C)NC(=O)[C@H](CC(C)C)NC(=O)[C@@H]1CCCN1C(=O)[C@H](CCCCN)NC(=O)[C@H](CCCCN)NC(=O)[C@H](CC(C)C)NC(=O)[C@H](CC(C)C)NC(=O)[C@H](CCCCN)NC(=O)[C@H](CCCCN)NC(=O)[C@H](Cc1c[nH]c2ccccc12)NC(=O)[C@@H](N)CCCCN)C(N)=O [P5-CT2] (H-KWKKLLKKPLLKKL-NH2) | – | – | – | 6.25 µM (≈ 11 µg/mL) | 12.5 µM (≈ 22 µg/mL) | 1.56 µM (≈ 2.75 µg/mL) | 3.13 µM (≈ 5.52 µg/mL) | – | – | –
CC(C)C[C@H](NC(=O)[C@H](CC(C)C)NC(=O)[C@@H]1CCCN1C(=O)[C@H](CCCCN)NC(=O)[C@H](CCCCN)NC(=O)[C@H](CC(C)C)NC(=O)[C@H](CC(C)C)NC(=O)[C@H](CCCCN)NC(=O)[C@H](CCCCN)NC(=O)[C@H](Cc1c[nH]c2ccccc12)NC(=O)[C@@H](N)CCCCN)C(=O)N[C@@H](CCCCN)C(N)=O [P5-CT3] (H-KWKKLLKKPLLK-NH2) | – | – | – | > 25 µM | > 25 µM | 3.13 µM (≈ 4.76 µg/mL) | 6.25 µM (≈ 9.51 µg/mL) | – | > 25 µM | –
CC(C)C[C@H](NC(=O)[C@H](CCCCN)NC(=O)[C@H](CCCCN)NC(=O)[C@H](CC(C)C)NC(=O)[C@H](CC(C)C)NC(=O)[C@H](CCCCN)NC(=O)[C@H](CCCCN)NC(=O)[C@H](CC(C)C)NC(=O)[C@H](CC(C)C)NC(=O)[C@@H]1CCCN1C(=O)[C@H](CCCCN)NC(=O)[C@H](CCCCN)NC(=O)[C@H](CC(C)C)NC(=O)[C@H](CC(C)C)NC(=O)[C@H](CCCCN)NC(=O)[C@@H](N)CCCCN)C(N)=O [P5-NT1] (H-KKLLKKPLLKKLLKKL-NH2) | – | – | – | 1.56 µM (≈ 3.01 µg/mL) | 3.13 µM (≈ 6.05 µg/mL) | 1.56 µM (≈ 3.01 µg/mL) | 1.56 µM (≈ 3.01 µg/mL) | 0.78 µM (≈ 1.51 µg/mL) | – | –
CC(C)C[C@H](NC(=O)[C@H](CCCCN)NC(=O)[C@H](CCCCN)NC(=O)[C@H](CC(C)C)NC(=O)[C@H](CC(C)C)NC(=O)[C@H](CCCCN)NC(=O)[C@H](CCCCN)NC(=O)[C@H](CC(C)C)NC(=O)[C@H](CC(C)C)NC(=O)[C@@H]1CCCN1C(=O)[C@H](CCCCN)NC(=O)[C@H](CCCCN)NC(=O)[C@H](CC(C)C)NC(=O)[C@@H](N)CC(C)C)C(N)=O [P5-NT2] (H-LLKKPLLKKLLKKL-NH2) | – | – | – | 3.13 µM (≈ 5.24 µg/mL) | 12.5 µM (≈ 20.9 µg/mL) | 1.56 µM (≈ 2.61 µg/mL) | 1.56 µM (≈ 2.61 µg/mL) | – | – | –
CC(C)C[C@H](NC(=O)[C@H](CCCCN)NC(=O)[C@H](CCCCN)NC(=O)[C@H](CC(C)C)NC(=O)[C@H](CC(C)C)NC(=O)[C@H](CCCCN)NC(=O)[C@H](CCCCN)NC(=O)[C@H](CC(C)C)NC(=O)[C@H](CC(C)C)NC(=O)[C@@H]1CCCN1C(=O)[C@H](CCCCN)NC(=O)[C@@H](N)CCCCN)C(N)=O [P5-NT3] (H-KKPLLKKLLKKL-NH2) | – | – | – | 6.25 µM (≈ 9.06 µg/mL) | 25 µM (≈ 36.2 µg/mL) | 1.56 µM (≈ 2.26 µg/mL) | 1.56 µM (≈ 2.26 µg/mL) | 0.78 µM (≈ 1.13 µg/mL) | – | –
CC(C)C[C@H](NC(=O)[C@H](CCCCN)NC(=O)[C@H](CCCCN)NC(=O)[C@H](CC(C)C)NC(=O)[C@H](CC(C)C)NC(=O)[C@H](CCCCN)NC(=O)[C@H](CCCCN)NC(=O)[C@H](CC(C)C)NC(=O)[C@H](CC(C)C)NC(=O)[C@@H]1CCCN1C(=O)[C@H](CCCCN)NC(=O)[C@H](CCCCN)NC(=O)[C@H](CC(C)C)NC(=O)[C@H](CC(C)C)NC(=O)[C@H](CCCCN)NC(=O)[C@H](CCCCN)NC(=O)[C@H](Cc1c[nH]c2ccccc12)NC(=O)[C@@H](N)CCCCN)C(N)=O [P5] (H-KWKKLLKKPLLKKLLKKL-NH2) | – | – | – | 3.13 µM (≈ 7.03 µg/mL) | 1.56 µM (≈ 3.5 µg/mL) | 1.56 µM (≈ 3.5 µg/mL) | 1.56 µM (≈ 3.5 µg/mL) | 1.56 µM (≈ 3.5 µg/mL) | – | approximately 14%
